Experimental data: patent publication US8759480B2, “Contoxin analogues and methods for synthesis of intramolecular dicarba bridge-containing peptides” (Syngene Limited, priority 2006, dated 2014)
Values joined by “and” are separate entries in the source; they are usually repeats but may differ in a detail not shown here. Identical values can stand only once.

How the values were obtained:
[1] = tested on: neuronal-type nicotinic receptors; conditions: cited from earlier work
[2] = tested on: neuronal-type nicotinic receptors; format: cell-based, bovine

SMILES	effect on nicotine-stimulated release of adrenaline and noradrenaline (in words) [1]	Adrenaline Release 1st [2]	Adrenaline Release 2nd [2]	Adrenaline Release 3rd [2]	Adrenaline Release 4th [2]	Adrenaline Release % control [2]	Adrenaline Release mean [2]	Noradrenaline Release 1st [2]	Noradrenaline Release 2nd [2]	Noradrenaline Release 3rd [2]	Noradrenaline Release 4th [2]	Noradrenaline Release % control [2]	Noradrenaline Release mean [2]
C[C@@H]1NC(=O)[C@@H]2CSC3(SC[C@@H](C(N)=O)NC(=O)[C@H](CCCNC(=N)N)NC(=O)[C@H](Cc4cc5ccccc5[nH]4)NC1=O)SC[C@H](NC(=O)CN)C(=O)N[C@@H](CS3)C(=O)N[C@@H](CO)C(=O)N[C@@H](CC(=O)O)C(=O)N1CCCC1C(=O)N[C@@H](CCCNC(=N)N)C(=O)N2 (stereo partly drawn) [Ctx ImI, α-conotoxin ImI]	inhibit the nicotine-stimulated release												
C[C@@H]1NC(=O)[C@@H]2CCCC[C@H](NC(=O)CN)C(=O)N[C@@H](CSSC[C@@H](C(N)=O)NC(=O)[C@H](CCCNC(=N)N)NC(=O)[C@H](Cc3cc4ccccc4[nH]3)NC1=O)C(=O)N[C@@H](CO)C(=O)N[C@@H](CC(=O)O)C(=O)N1CCCC1C(=O)N[C@@H](CCCNC(=N)N)C(=O)N2 (stereo partly drawn) [compound 118, [2,8]-Dicarba-[3,12]-Cystino Conotoxin ImI: NH2-Gly-c[Hag-Cys-Ser-Asp-Pro-Arg-Hag]-Ala-Trp-Arg-Cys)-NH2]		2.94% and 2.55%	4.40% and 3.63%	4.46% and 2.62%	4.09% and 3.31%	88.260% and 65.306%	3.97% and 3.03%	4.52% and 4.19%	6.29% and 5.86%	7.00% and 4.32%	7.34% and 5.51%	90.859% and 69.384%	6.29% and 4.97%
